# Where two headings read alike, the source gives them in different places. Positions of bridges follow the written chain, without caps; N, C: chain ends. Non-standard residues stand in square brackets, D forms with d. Residues, ends and D or L forms follow the SMILES beside them. Leu(3R-O(AcLeu(3R-OH))) = CC(=O)N[C@H](C(=O)O[C@H](C(C)C)[C@H](N)C(=O)O)[C@H](O)C(C)C; NMeT = CN[C@H](C(=O)O)[C@@H](C)O; dPhLac = O=C(O)[C@H](O)Cc1ccccc1; NMeA = CN[C@@H](C)C(=O)O; NMeDha = C=C(NC)C(=O)O
# What was measured:
# [1] = Stability in buffer at pH 5.6 and in lysosomes; format: in vitro ADME; settings: buffer pH 5.6, lysosomes, 4 h, FIG. 5D
# Protocol: (§1) In vitro stability of Compound (A2) was tested in plasma and blood from different species (FIG. 5A). […]
# [2] = Stability of Compound (A2), plasma, human; format: in vitro ADME; settings: read-out: Plasma t½ (converted)
# Protocol: as §1
# [3] = Stability of Compound (A2), hepatic microsomes, rat; format: in vitro ADME; settings: intrinsic clearance
# Protocol: as §1
# [4] = Stability of Compound (A2), hepatic S9 fraction, human; format: in vitro ADME; settings: read-out: Hepatic S9 (+/−NADPH) t½ (converted)
# Protocol: as §1
# [5] = Chemical stability of Compound (A2) in three different systems; format: physicochemical; settings: FIG. 5B
# Protocol: as §1
# [6] = Stability of Compound (A2), plasma, rat; format: in vitro ADME; settings: read-out: Plasma t½ (converted)
# Protocol: as §1
# 92.1 uveal melanoma = experiment: Resazurin-based viability assay, 92.1 uveal melanoma cells; format: cell-based
# [7] = tested on: MIAPACA pancreatic ductal adenocarcinoma cells; experiment: Resazurin-based viability assay, MIAPACA cells; format: cell-based; settings: Homo sapiens, MIA PaCa-2, WT, 96 or 120 hours, Table 4
# Protocol: 92.1 uveal melanoma and MIAPACA pancreatic ductal adenocarcinoma cells were seeded at low cell density in 96-well plates and treated with increasing concentrations of Compound (A1) or Compound (A2) as indicated. Following drug treatment for 96 or 120 hours, cell viability and proliferation were determined using a resazurin-based viability assay. Briefly, cells were incubated with a resazurin-based solution and color change was detected by absorbance with a spectrophotometer and used as a readout of cell viability. Data presented as mean of 3 independent replicates and relative to PBS-treated cells (control).
# [8] = Stability of Compound (A2), hepatic microsomes, mouse; format: in vitro ADME; settings: intrinsic clearance
# Protocol: as §1
# GNAQ/11 = experiment: IP1 levels by TR-FRET in 92.1 uveal melanoma cells; format: cell-based; settings: 92.1 cells, overnight treatment, FIG. 3A
# Protocol: (§2) 92.1 uveal melanoma were treated with increasing concentrations of Compound (A1) or Compound (A2) as indicated. Following drug treatment overnight, cells were processed for determination of IP1 levels using TR-FRET (time-resolved fluorescent resonance energy transfer) or protein levels by western-blotting.
# 92.1 uveal melanoma were treated with DMSO, Compound (A1) (8 nM) and increasing concentrations of Isotype-(B1), anti-PMEL17-(B1) and anti-PMEL17-(B2) ADCs as indicated. Following drug treatment for 2 days, cells were processed for determination of IP1 levels using TR-FRET (time-resolved fluorescent resonance energy transfer). IP1 levels (nM) are presented as mean of 3 independent replicates.
# [9] = Stability of Compound (A2), hepatocytes, human; format: in vitro ADME
# Protocol: as §1
# [10] = Stability of Compound (A2), hepatocytes, rat; format: in vitro ADME
# Protocol: as §1
# 92.1 cells = experiment: Annexin V flow cytometry apoptosis assay, 92.1 cells; format: cell-based; settings: 92.1 and MIAPACA cells, FIG. 2
# Protocol: (§3) 92.1 and MIAPACA cells were seeded in 96-well plates (5000 cells per well) and treated with increasing concentrations of Compound (A1), Compound (A2), and a fixed dose of Staurosporine (100 nM, positive control) as indicated. Following drug treatment for 96, cells were subjected to fluorescence-activated flow cytometry using an Annexin V antibody conjugated to a fluorescent dye. Data presented as mean of 3 independent replicates.
# as §3, with “92.1” for “92.1 and MIAPACA”, “3207-(B1) (Isotype control), G4-(B1),” for “Compound (A2),”, “G1-(B1)” for “a fixed dose of Staurosporine (100 nM, positive control)”
# [11] = Stability of Compound (A2), hepatic microsomes, human; format: in vitro ADME; settings: intrinsic clearance
# Protocol: as §1
# [12] = Stability of Compound (A2), hepatic S9 fraction, rat; format: in vitro ADME
# Protocol: as §1
# ERK signaling = experiment: Western-blotting of 92.1 cells, ERK signaling; format: cell-based; settings: FIG. 3C
# Protocol: as §2
# [13] = Stability of Compound (A2), plasma, mouse; format: in vitro ADME; settings: read-out: Plasma t½ (converted)
# Protocol: as §1
# [14] = PK of Compound (A2) in female balb/c mice; format: in vivo
# Protocol: as §1
# [15] = Stability of Compound (A2), hepatic S9 fraction, mouse; format: in vitro ADME; settings: read-out: Hepatic S9 (+/−NADPH) t½ (converted)
# Protocol: as §1
compound,measurement,setting,value
"C=C1C(=O)N[C@@H](C)C(=O)N(C)[C@@H](C)C(=O)N[C@@H]([C@H](OC(=O)[C@@H](NC(C)=O)[C@H](O)C(C)C)C(C)C)C(=O)N(C)[C@@H]([C@@H](C)OC)C(=O)O[C@H](C)[C@H](NC(C)=O)C(=O)O[C@H](Cc2ccccc2)C(=O)N1C [Compound (A2), (R)-1-((3S,6S,9S,12S,18R,21S,22R)-21-acetamido-18-benzyl-3-((R)-1-methoxyethyl)-4,9,10,12,16,22-hexamethyl-15-methylene-2,5,8,11,14,17,20-heptaoxo-1,19-dioxa-4,7,10,13,16-pentaazacyclodocosan-6-yl)-2-methylpropyl (2S,3R)-2-acetamido-3-hydroxy-4-methylpentanoate] (Ac-T[dPhLac][NMeDha]A[NMeA][Leu(3R-O(AcLeu(3R-OH)))][NMeT](Me); ester 1-C)",stability in buffer and lysosomes,[1],stable in buffer at pH 5.6 and in lysosomes over 4 h
same,half-life,[2],2 h
same,Hepatic microsomes,[3],0.033 mL/min/kg
same,half-life,[4]; +NADPH,1.9 h
same,half-life,[4]; −NADPH,> 2 h
same,chemical stability,[5],good chemical stability in three different systems
same,half-life,[6],4.1 h
same,GI50,"92.1 uveal melanoma; 92.1, GNAQ^Q209L, 96 or 120 hours, Table 4, read-out: GI50",7.7 nM
same,GI50,"92.1 uveal melanoma; 92.1 GNAQ^Q209L, Table 1, read-out: GI50 (nM) 92.1GNAQ^Q209L",22.1 nM
same,anti-UM activity,"92.1 uveal melanoma; 92.1 vs MIAPACA, FIG. 1",potent target-dependent anti-UM activity
same,GI50,[7],> 10000 nM
same,Hepatic microsomes,[8],0.107 mL/min/kg
same,IP1 levels,GNAQ/11,reduced IP1 levels
same,Hepatocytes (ul/min/10^6 cells),[9],<4 ul/min/10^6 cells
same,Hepatocytes (ul/min/10^6 cells),[10],8 ul/min/10^6 cells
same,apoptosis (Annexin V),92.1 cells,induced apoptosis in UM cells in GNAQ/11 dependent manner
same,Hepatic microsomes,[11],0.044 mL/min/kg
same,half-life,"[12]; hepatic S9 fraction, +NADPH, read-out: Hepatic S9 (+/−NADPH) t½",> 2 h
same,Hepatic S9 (+/−NADPH) t½ (h),[12]; −NADPH,>2/>2 h
same,ERK signaling (immunoblots),ERK signaling,reduced ERK signaling
same,half-life,[13],2.1 h
same,clearance,[14]; FIG. 5C,high clearance
same,elimination half-life,[14]; FIG. 5C,short elimination half-life
same,half-life,"[14]; mouse, in vivo, 1 mg/kg iv",0.4 ± 0.01 h
same,clearance,"[14]; mouse, in vivo, 1 mg/kg iv, read-out: CL",175 ± 29 mL/min/kg
same,half-life,[15]; +NADPH,1.9 h
same,half-life,[15]; −NADPH,> 2 h
